Data from patent US6919425B2, “Isolation of a cell-specific internalizing peptide that infiltrates tumor tissue for targeted drug delivery” (Board of Regents, The University of Texas System, priority 2000, dated 2005).
“Also recorded” adds a separate entry of the source. Starred links: 1 amine or outer side, 2 acyl side, 3 side chain; linkers in the order of their positions; H or OH if unused. Positions of bridges follow the written chain, without caps; N, C: chain ends. Non-standard residues stand in square brackets, D forms with d. Residues, ends and D or L forms follow the SMILES beside them. Chains are numbered I, II in the order given. Actinocin(9to1) = Cc1c2oc3c(C)ccc(C(=O)[*:1])c3nc-2c(C(=O)[*:2])c(N)c1=O; NMeV = CN[C@H](C(=O)O)C(C)C; Sar = CNCC(=O)O

How the values were obtained:
[1] = cited from earlier work
[2] = Toxicity, immunogenicity and stability in HN-1 injected mice; type: in vivo
[3] = tested on: MDA177Tu cells
[4] = mouse, in vivo; cited from earlier work

For `Cc1c2oc3c(C)ccc(C(=O)N[C@@H]4C(=O)N[C@H](C(C)C)C(=O)N5CCC[C@H]5C(=O)N(C)CC(=O)N(C)[C@@H](C(C)C)C(=O)O[C@@H]4C)c3nc-2c(C(=O)N[C@@H]2C(=O)N[C@H](C(C)C)C(=O)N3CCC[C@H]3C(=O)N(C)CC(=O)N(C)[C@@H](C(C)C)C(=O)O[C@@H]2C)c(N)c1=O` [Actinomycin D] (I: T[dV]P[Sar][NMeV] / II: T[dV]P[Sar][NMeV]; ester I:1-I:C, II:1-II:C; linker I:N-II:N via Actinocin(9to1)), which “dose excreted / detected intact in the urine” value ([1]; in vivo) is on record?
The value was 10%.

With `CC[C@H](C)[C@H](NC(=O)[C@H](CC(N)=O)NC(=O)[C@H](CC(C)C)NC(=O)[C@@H]1CCCN1C(=O)[C@H](CO)NC(=O)[C@@H](N)[C@@H](C)O)C(=O)N[C@@H](Cc1c[nH]cn1)C(=O)N[C@@H](CC(N)=O)C(=O)NCC(=O)N[C@@H](CCC(N)=O)C(=O)N[C@@H](CCCCN)C(=O)N[C@@H](CC(C)C)C(N)=O` [HN-1] (H-TSPLNIHNGQKL-NH2; N-terminus and C-terminus assumed) as the compound, how does the toxicity ([2]; histology of organs of injected mice) read?
Its toxicity is “no histological evidence of organotoxicity; also recorded: nontoxic”.

What about the immunogenicity ([2]; mouse, in vivo) of the same compound?
The immunogenicity was “nonimmunogenic”.

What about the “protection of cargo during transit” value ([2]; mouse, in vivo) of the same compound?
Its value is “protects its “cargo” during transit; also recorded: protects its cargo during transit”.

What about the stability in vivo ([2]; shown by detecting intact peptide in blood 24 h after injection) of the same compound?
Its stability in vivo is “stable in vivo”.

For `O=NN(CCCl)C(=O)NC1CCCCC1` [Lomustine, 1-(2-chloro-ethyl)-3-cyclohexyl-1nitrosourea], which “tissue levels relative to plasma levels” value ([1]; in vivo, iv) is on record?
Its value is “comparable”.

With `CC[C@]1(O)C[C@@H]2CN(CCc3c([nH]c4ccccc34)[C@@](C(=O)OC)(c3cc4c(cc3OC)N(C)[C@H]3[C@@](O)(C(=O)OC)[C@H](OC(C)=O)[C@]5(CC)C=CCN6CC[C@]43[C@@H]65)C2)C1` [Vinblastine] as the compound, how does the “dose excreted / detected intact in the urine” value ([1]; in vivo) read?
Its value is “Approximately 15%”.

What about the “half-life of disappearance from plasma after distribution (first of two)” value ([1]; intravenous injection) of the same compound?
Its value is “approximately 1 hours”.

And the “half-life of disappearance from plasma after distribution (second of two)” value ([1]; intravenous injection)?
Its value is ~20 h.

With `CC[C@]1(O)C[C@H]2CN(CCc3c([nH]c4ccccc34)[C@@](C(=O)OC)(c3cc4c(cc3OC)N(C=O)[C@H]3[C@@](O)(C(=O)OC)[C@H](OC(C)=O)[C@]5(CC)C=CCN6CC[C@]43[C@@H]65)C2)C1` [Vincristine] as the compound, how does the “terminal half-life of clearance from the plasma” value ([1]; multiphasic) read?
Its value is “about 24 hours”.

With `O=C1OC2(c3ccc(O)cc3Oc3cc(O)ccc32)c2ccccc21` [fluorescein] as the compound, how does the “permeability of the dyes themselves” value [3] read?
The value was “impermeable”.

What does the source list for Bleomycin?
concentrations in hematopoietic tissue / bone marrow [4]: low concentrations; concentrations in skin, lungs, kidneys, peritoneum and lymphatics [4]: high concentrations
